Measured values: patent US12043630B2, “Polymorphic form of TG02 for treating cancer” (Cothera Bioscience, Inc., priority 2017, dated 2024)
Counter-ions that a name gives are not always drawn.

Experiment: Polymorphic form conversion over time
Assay type: physicochemical
Procedure: Preparation: A solution containing TG02·HCl (77.1 g), EtOH (2340 mL) and H2O (185 mL) was heated at reflux for 0.5 h. The mixture was cooled to […] and stirred for 2 h. The mixture was filtered, and the filter cake was washed with EtOH and dried to give TG02 Form VIII (HCl).

With CN1C/C=C/CCOc2cccc(c2)-c2ccnc(n2)Nc2cccc(c2)C1 [TG02 Form VIII (HCl), (16E)-14-methyl-20-oxa-5,7,14,26-tetraazatetracyclo[19.3.1.1(2,6).1(8,12)]heptacosa-1(25),2(26),3,5,8(27),9,11,16,21,23-decaene] as the compound, how does the “Form conversion over time” value read?
The value was “gradually converted to TG02 Form VI (HCl) over time”.
